Test results as given in paper PMC12211128, “Safety, tolerability, pharmacokinetic and pharmacodynamic effects of the muscarinic M1 positive allosteric modulator VU0467319 for Alzheimer’s disease: a single ascending-dose study in healthy participants” (Alzheimer's Research & Therapy, 2025).

Experiments:
[1] = system: healthy participants; assay: N-back sequential letter task; assay type: in vivo, human; conditions: for N-Back 0-back Sensitivity (d’) / N-Back 1-back Sensitivity / N-Back 2-back Sensitivity / N-Back 3-back Sensitivity: mean (SD)
Source text: A visually presented N-back sequential letter task was used to assess working memory performance, wherein participants saw a string of consonants (except L, W, and Y), presented in upper case letters, one every 3 s. Four conditions were presented: 0-back, 1-back, 2-back, and 3-back. The main outcome variable of the n-back task was sensitivity (d’) for each of the four conditions, calculated as: d’ = Z (Hit)– Z (False alarms).
(§1) Cognitive data: In this exploratory analysis, each outcome variable of the cognitive data was examined in a mixed model analysis of variance with one between-subjects factor of VU319 dose (0, 60, 120, 240, 400, 600 mg) and a within-subjects factor of testing session (pre-dose vs. post-dost administration). Post-hoc analysis compared each of the VU319 dose cohorts against the placebo group. Because the participants were healthy adults with normal cognitive function, we considered effects between no reductions in function to small improvement (d = 0.0–0.20) to be a positive result. For the food effect study, only the participants who received VU319 were examined due to the disproportionately small placebo group (n = 2). A within-subjects ANOVA including food condition (fasted/fed) and testing session (pre-dose vs. post-dose administration) was performed on each outcome variable.
A visually presented N-back sequential letter task (Jonides et al., 1997; Saykin et al., 2004) was used to assess working memory performance, wherein participants saw a string of consonants (except L, W, and Y), presented in upper case letters, one every 3 s. Four conditions were presented: 0-back, 1-back, 2-back, and 3-back. The 0-back control condition required participants to decide if the current letter matched a single target letter that was specified before the epoch began. In each of the 1-back, 2-back, and 3-back conditions, the task is to decide whether the letter currently presented matches the letter that has been presented 1, 2, or 3 back in the sequence. The 0-, 1-, 2-, and 3-back conditions were performed in two blocks of 27 trials each for a total of 216 trials. The blocks were presented in a counterbalanced order such that the same condition was not repeated two times in a row. The main outcome variable of the n-back task was sensitivity (d’) for each of the four conditions, calculated as: d’ = Z (Hit) – Z (False alarms).

[2] = system: healthy participants; assay: Critical flicker fusion task (CFF); assay type: in vivo, human; conditions: for CFF Median Ascending score / CFF Median Descending score: mean (SD)
Source text: (§2) The critical flicker fusion task (CFF; [30]) was used to test perceptual vigilance using the frequency of a flickering LED (between 12 and 50 Hz). The outcome variable for CFF is frequency (Hz) for ascending and descending trials. In the ascending trials, the participants pressed a button indicating when the light flickered to a speed where they appear to be continuously on or fused. In the descending trials, the participants pressed a button when the frequency of apparently fused lights is decreased such that lights begin to appear to be flashing.
as §1
as §2, with “(Kupke & Lewis, 1989))” for “[30])”, “12-50” for “12 and 50”

[3] = system: animal models; set-up: method as in PMID 39660766; conditions: preclinical and IND-enabling studies; cited from earlier work
[4] = Food effect study 120 mg, Fasting, Post-Drug
[5] = Food effect study 120 mg, Fasting, Pre-Drug
[6] = Food effect study 120 mg, Fed, Post-Drug
[7] = Food effect study 120 mg, Fed, Pre-Drug

Cn1cc2c(-c3cc(F)c(CN4Cc5ncccc5C4=O)c(F)c3)cccc2n1 [VU319]
N-back 2-back d', vs placebo, effect size d ([1]; 400 mg, p = 0.12): 0.87 | N-back 1-back d', vs placebo, effect size d ([1]; 600 mg, p = 0.12): 0.86 | N-Back 0-back Sensitivity (d’) [1, 4]: 5.15 (1.1) | N-Back 1-back Sensitivity [1, 4]: 3.38 (2.09) | N-Back 2-back Sensitivity [1, 4]: 2.3 (1.64) | N-Back 3-back Sensitivity [1, 4]: 1.96 (1.4) | N-Back 0-back Sensitivity (d’) [1, 5]: 4.64 (1.22) | N-Back 1-back Sensitivity [1, 5]: 5.01 (0.93) | N-Back 2-back Sensitivity [1, 5]: 3.79 (1.18) | N-Back 3-back Sensitivity [1, 5]: 2.55 (1.42) | N-Back 0-back Sensitivity (d’) [1, 6]: 4.62 (1.32) | N-Back 1-back Sensitivity [1, 6]: 4.13 (1.6) | N-Back 2-back Sensitivity [1, 6]: 2.89 (1.42) | N-Back 3-back Sensitivity [1, 6]: 2.53 (0.97) | N-Back 0-back Sensitivity (d’) [1, 7]: 4.67 (1.4) | N-Back 1-back Sensitivity [1, 7]: 5.42 (0.99) | N-Back 2-back Sensitivity [1, 7]: 3.75 (1.21) | N-Back 3-back Sensitivity [1, 7]: 2.29 (0.65) | N-Back 0-back Sensitivity (d’) ([1]; SAD study, 60 mg, Post-Drug): 5.37 (1.26) | N-Back 1-back Sensitivity ([1]; SAD study, 60 mg, Post-Drug): 4.99 (1.48) | N-Back 2-back Sensitivity ([1]; SAD study, 60 mg, Post-Drug): 3.12 (1.22) | N-Back 3-back Sensitivity ([1]; SAD study, 60 mg, Post-Drug): 2.11 (0.36) | N-Back 0-back Sensitivity (d’) ([1]; SAD study, 60 mg, Pre-Drug): 5.64 (0.84) | N-Back 1-back Sensitivity ([1]; SAD study, 60 mg, Pre-Drug): 5.01 (1.17) | N-Back 2-back Sensitivity ([1]; SAD study, 60 mg, Pre-Drug): 3.35 (0.91) | N-Back 3-back Sensitivity ([1]; SAD study, 60 mg, Pre-Drug): 2.65 (0.49) | N-Back 0-back Sensitivity (d’) ([1]; SAD study, 120 mg, Post-Drug): 5.37 (1.26) | N-Back 1-back Sensitivity ([1]; SAD study, 120 mg, Post-Drug): 4.46 (1.35) | N-Back 2-back Sensitivity ([1]; SAD study, 120 mg, Post-Drug): 3.25 (2.19) | N-Back 3-back Sensitivity ([1]; SAD study, 120 mg, Post-Drug): 1.75 (1.14) | N-Back 0-back Sensitivity (d’) ([1]; SAD study, 120 mg, Pre-Drug): 5.64 (0.84) | N-Back 1-back Sensitivity ([1]; SAD study, 120 mg, Pre-Drug): 4.91 (1.08) | N-Back 2-back Sensitivity ([1]; SAD study, 120 mg, Pre-Drug): 3.28 (1.98) | N-Back 3-back Sensitivity ([1]; SAD study, 120 mg, Pre-Drug): 2.34 (1.12) | N-Back 0-back Sensitivity (d’) ([1]; SAD study, 240 mg, Post-Drug): 6.18 (0) | N-Back 1-back Sensitivity ([1]; SAD study, 240 mg, Post-Drug): 4.32 (2.3) | N-Back 2-back Sensitivity ([1]; SAD study, 240 mg, Post-Drug): 3.42 (2.29) | N-Back 3-back Sensitivity ([1]; SAD study, 240 mg, Post-Drug): 1.66 (0.83) | N-Back 0-back Sensitivity (d’) ([1]; SAD study, 240 mg, Pre-Drug): 6.18 (0) | N-Back 1-back Sensitivity ([1]; SAD study, 240 mg, Pre-Drug): 4.72 (2.02) | N-Back 2-back Sensitivity ([1]; SAD study, 240 mg, Pre-Drug): 3.77 (1.84) | N-Back 3-back Sensitivity ([1]; SAD study, 240 mg, Pre-Drug): 2.37 (0.81) | N-Back 0-back Sensitivity (d’) ([1]; SAD study, 400 mg, Post-Drug): 6.18 (0) | N-Back 1-back Sensitivity ([1]; SAD study, 400 mg, Post-Drug): 5.37 (1.26) | N-Back 2-back Sensitivity ([1]; SAD study, 400 mg, Post-Drug): 3.6 (1.84) | N-Back 3-back Sensitivity ([1]; SAD study, 400 mg, Post-Drug): 2.01 (0.74) | N-Back 0-back Sensitivity (d’) ([1]; SAD study, 400 mg, Pre-Drug): 6.18 (0) | N-Back 1-back Sensitivity ([1]; SAD study, 400 mg, Pre-Drug): 5.64 (0.84) | N-Back 2-back Sensitivity ([1]; SAD study, 400 mg, Pre-Drug): 3.54 (1.69) | N-Back 3-back Sensitivity ([1]; SAD study, 400 mg, Pre-Drug): 2.34 (0.74) | N-Back 0-back Sensitivity (d’) ([1]; SAD study, 600 mg, Post-Drug): 5.27 (1.43) | N-Back 1-back Sensitivity ([1]; SAD study, 600 mg, Post-Drug): 5.09 (1.06) | N-Back 2-back Sensitivity ([1]; SAD study, 600 mg, Post-Drug): 4.43 (1.72) | N-Back 3-back Sensitivity ([1]; SAD study, 600 mg, Post-Drug): 2.94 (1.3) | N-Back 0-back Sensitivity (d’) ([1]; SAD study, 600 mg, Pre-Drug): 5.57 (0.95) | N-Back 1-back Sensitivity ([1]; SAD study, 600 mg, Pre-Drug): 5.07 (0.59) | N-Back 2-back Sensitivity ([1]; SAD study, 600 mg, Pre-Drug): 4.31 (1.69) | N-Back 3-back Sensitivity ([1]; SAD study, 600 mg, Pre-Drug): 3.3 (1.02) | N-back d' score, effect of dose ([1]; SAD study, four conditions, all p > 0.2): did not show a significant effect of dose, nor dose by time | N-back 2-back sensitivity, effect of time of testing, effect size d ([1]; food effect study, 120 mg, p = 0.004, not related to food condition): 2.55 | N-back 1-back sensitivity, effect of time of testing, effect size d ([1]; food effect study, 120 mg, p = 0.015, not related to food condition): 2.0 | CFF Median Ascending score [2, 4]: 39.03 (5.2) Hz | CFF Median Descending score [2, 4]: 38.59 (4.57) Hz | CFF Median Ascending score [2, 5]: 34.62 (9.06) Hz | CFF Median Descending score [2, 5]: 38.49 (5.19) Hz | CFF Median Ascending score [2, 6]: 39.29 (4.38) Hz | CFF Median Descending score [2, 6]: 39.36 (4.08) Hz | CFF Median Ascending score [2, 7]: 39.09 (5.81) Hz | CFF Median Descending score [2, 7]: 39.25 (3.25) Hz | CFF Median Ascending score ([2]; SAD study, 60 mg, Post-Drug): 37.67 (3.1) Hz | CFF Median Descending score ([2]; SAD study, 60 mg, Post-Drug): 38.32 (7.51) Hz | CFF Median Ascending score ([2]; SAD study, 60 mg, Pre-Drug): 36.32 (4.6) Hz | CFF Median Descending score ([2]; SAD study, 60 mg, Pre-Drug): 37 (5.35) Hz | CFF Median Ascending score ([2]; SAD study, 120 mg, Post-Drug): 36.53 (3.87) Hz | CFF Median Descending score ([2]; SAD study, 120 mg, Post-Drug): 38.68 (3.31) Hz | CFF Median Ascending score ([2]; SAD study, 120 mg, Pre-Drug): 37.33 (2.38) Hz | CFF Median Descending score ([2]; SAD study, 120 mg, Pre-Drug): 40.23 (4.95) Hz | CFF Median Ascending score ([2]; SAD study, 240 mg, Post-Drug): 38.12 (4.1) Hz | CFF Median Descending score ([2]; SAD study, 240 mg, Post-Drug): 37.25 (6.89) Hz | CFF Median Ascending score ([2]; SAD study, 240 mg, Pre-Drug): 32.72 (9.97) Hz | CFF Median Descending score ([2]; SAD study, 240 mg, Pre-Drug): 37.1 (6.52) Hz | CFF Median Ascending score ([2]; SAD study, 400 mg, Post-Drug): 39.98 (3.97) Hz | CFF Median Descending score ([2]; SAD study, 400 mg, Post-Drug): 40.05 (3.01) Hz | CFF Median Ascending score ([2]; SAD study, 400 mg, Pre-Drug): 37.92 (3.7) Hz | CFF Median Descending score ([2]; SAD study, 400 mg, Pre-Drug): 39.67 (2.1) Hz | CFF Median Ascending score ([2]; SAD study, 600 mg, Post-Drug): 36.58 (3.14) Hz | CFF Median Descending score ([2]; SAD study, 600 mg, Post-Drug): 39.73 (5.18) Hz | CFF Median Ascending score ([2]; SAD study, 600 mg, Pre-Drug): 35.45 (3.61) Hz | CFF Median Descending score ([2]; SAD study, 600 mg, Pre-Drug): 39.22 (5.92) Hz | CFF ascending trial, effect of dose ([2]; SAD study, both p > 0.3): no effect of dose, nor a dose by time interaction | CFF ascending condition, post- vs pre-dose, effect size d ([2]; food effect study, 120 mg, p = 0.07): 1.37 | SLUDGE effects in animal models [3]: without producing SLUDGE effects | cognition in animal models [3]: effective at improving cognition
